For data set [1] the following is noted: cited from earlier work.
Data set [2] concerns brain tumor capillaries. Particulars: intracarotid infusion, cited from earlier work.
Data set [3] concerns blood-tumor barrier of RG2 glioma tissue. The data set can be described thus: Unidirectional transfer constant Ki for [14C]AIB across the blood-tumor barrier, quantitative autoradiography after intracarotid infusion. The conditions noted are these: for unidirectional transport constant Ki for [14C]α-aminoisobutyric acid (AIB) across the blood-tumor barrier: RG2 glioma-bearing Wistar rats, intracarotid 7.5 μg kg^−1 min^−1 for 15 minutes. The data set is classed as in vivo, Wistar rats. The text has this: Malignant Cell Line and Tumor Implantation. A rat glioma cell line, RG2, was used for implantation of experimental brain tumors in Wistar rats. The techniques for RG2 cell propagation and maintenance in tissue culture have been described (Sugita, M. and Black, K. L., Cyclic GMP-specific phosphodiesterase inhibition and intracarotid bradykinin infusion enhances permeability into brain tumors, Cancer Res. 58(5):914-20 [1998]; Inamura et al. [1994]; Nakano, S. et al., Increased brain tumor microvessel permeability after intracarotid bradykinin infusion is mediated by nitric oxide, Cancer Res. 56(17):4027-31 [1996]). Briefly, RG2 cells derived from a rat glioma are kept frozen until use, then are thawed and maintained in a monolayer culture in F12 medium with 10% calf serum.
The Wistar rats (approximately 140-160 g body weight) were anesthetized with intra-peritoneal ketarnine (50 mg/kg), and glial cells (1×10^5) were implanted into the right hemisphere, but not the contralateral hemisphere, by intracerebral injection suspended in 5 μL F12 medium,(1-2% methylcellulose) by.a Hamilton syringe. The implantation coordinates were 3-mm lateral to the bregrna and 4.5 mm deep to the dural surface.
Intracarotid Infusion of Potassium Channel Activators. Seven days after implantation of RG2 cells, the rats were anesthetized as described above and prepared for permeability studies. Animals were infused with either NS-1619 (a selective large conductance Ca^2+- activated K^+ channel activator; […]; 5% (v/v) ethanol. Ethanol (25% [v/v]) was used to dissolve. the potassium channel agonists before.dilution in PBS. For blood volume studies, 5 and 14 minutes after the start of the intracarotid infusion of potassium channel agonist compounds, [^14C] Dextran (100 μCi/kg; Dupont-New England Nuclear Co., Boston, Mass.) was injected as an intravenous bolus and maintained for 1 minute and 10 minutes to obtain two different time points. For regional permeability studies, 5 minutes after the start of the intracarotid infusion of vasoactive compounds, 100 μCi/kg of [^14C]α-aminoisobutyric acid (Dupont-New England Nuclear Colo., Boston, Mass.) was injected as an intravenous bolus. A peristaltic withdrawal pump was used to withdraw femoral arterial blood at a constant rate of 0.083 mL/min immediately after the injection of the tracer to determine serum radioactivity. Fifteen minutes after the intracarotid infusion, rat decapitated and the brain rapidly removed and frozen for quantitative autoradiography.
Unidirectional Transport Constant (Ki). The unidirectional transfer constant Ki for [^14C]α-aminoisobutyric acid was measured in normal tissue and tumor tissue as an indicator of permeability across the blood-tumor and blood-brain barriers. Quantitative autbradiography was. used to obtain Ki values (μL g^−1min^−1). The initial rate for blood-to-brain transfer was calculated using a previously described equation. (Ohno, K, et al., Lower limits of cerebrovascular permeability to nonelectrolytes in the conscious rat, Am. J. Physiol. 235(3):H299-307, [1978]; Inamura, T., et al., Bradykinin selectively opens blood-tumor barrier in experimental brain rumors, J. Cereb. Flow Metab. 14(5):862-70 [1994]). Quantitative data were analyzed using, two group t-test and two-group Fisher's-exact test of equal proportions or equal means (equal numbers) at 90% power requires a minimum of 6 animals in each group to achieve statistical significance. Multiple treatment groups were compared with control group by ANOVA and P values determined by post-hoc Bonferroni test.
Dose-dependence studies. NS-1619 was dissolved in 25% ethanol and diluted with PBS to obtain various concentrations for infusion. […]

Data set [4] can be described thus: Arterial blood pressure monitored during intracarotid infusion. The data set is classed as in vivo. The conditions noted are these: rats; higher doses (100 and 110 μg/kg/min). As to the method:
Dose-dependence studies. NS-1619 was dissolved in 25% ethanol and diluted with PBS to obtain various concentrations for infusion. NS-1619 was administered by intracarotid infusion (dose rates: 0, 13, 26.5, 53, 80, 100 and 110 μg kg^−1 min^−1; all at 53.3. μL/min) to RG2 glioma-bearing rats to determine a dose that produces increased permeability (Ki) of (^14C]-AIB, which was administered intravenously. Ki determined as described above. Physiological parameters were monitored during the experiments.

In brackets after ≈: the same amount, converted by molar mass. Entries after “also recorded” stand apart in the source; their conditions may differ. Structures can show the parent of a compound that is named as a salt.

Take `CC(N/C(=N\C#N)Nc1ccncc1)C(C)(C)C` (racemic) [pinacidil, (±)-N-cyano-N′-4-pyridinyl-N″-(1,2,2-trimethylpropyl)-guanidine]: in data set [1] (ethanol), the solubility in ethanol is given as 14 mg/mL (≈ 57.1 mM). Also, the solubility in water result in data set [1] is listed as “insoluble in water; also recorded: not easily dissolved in water”.

As to `CCCCC/C=C\C\C=C/C=C/C=C/[C@@H](SC[C@H](NC(=O)CC[C@H](N)C(=O)O)C(=O)NCC(=O)O)[C@@H](O)CCCC(=O)O` [LTC4, leukotriene C4], the “permeability in normal brain capillaries” value in data set [2] was “without affecting the permeability”. Moreover, the “permeability in brain tumor capillaries” value in data set [2] (effect limited to small molecules) is “selectively increases the permeability”.

Turning to `O=c1[nH]c2cc(C(F)(F)F)ccc2n1-c1cc(C(F)(F)F)ccc1O` [NS-1619, 1,3-dihydro-1-[2-hydroxy-5-(trifluoromethyl)phenyl]-5-(trifluoromethyl)-2H-benzimidazol-2-one], in data set [1], the solubility in water result is listed as “not easily dissolved in water”. In addition, the “Ki for [14C]AIB in RG2 tumor, NS-1619 26.5 μg kg^−1 min^−1 vs PBS with or without 5% ethanol” value in data set [3] (15 minutes, n=8, P<0.001) was “Increase of Ki”. The “unidirectional transport constant Ki for [14C]α-aminoisobutyric acid (AIB) across the blood-tumor barrier” value in data set [3] is on record as “significantly increased”. The “dose-response of Ki for [14C]AIB in RG2 glioma capillaries” value in data set [3] (intracarotid dose rates 0, 13, 26.5, 53, 80, 100 and 110 μg kg^−1 min^−1) is “increasing the dose of NS-1619 results in an increase”. In data set [4], the arterial blood pressure entry is on record as “a significant drop in the arterial blood pressure”.

Take `CC1=NS(=O)(=O)c2cc(Cl)ccc2N1` [diazoxide]: the solubility in water entry in data set [1] is on record as “not easily dissolved in water”.

For the compound `Nc1cc(N2CCCCC2)nc(N)[n+]1OS(=O)(=O)[O-]` [minoxidil sulfate], the solubility in water result in data set [1] is recorded as “not easily dissolved in water”. Also, the “unidirectional transport constant Ki for [14C]α-aminoisobutyric acid (AIB) across the blood-tumor barrier” value in data set [3] is recorded as “significantly increased”.

For “IBTX: specific KCa channel inhibitor, iberiotoxin (QFTDVDCSVSKECWSVCKDLFGVDRGKCMGKKCRCYQ; Iberiotoxin; UniProt P24663 1-37, looked up)”, in data set [3] (IBTX 2.3 μg kg^−1 min^−1, 15 minutes, n=3), the “brain-tumor barrier permeability of abnormal capillaries, IBTX alone” value is listed as “did not affect”. In data set [3] (IBTX 2.3 μg kg^−1 min^−1 with NS-1619 26.5 μg kg^−1 min^−1, n=3, P<0.001 vs NS-1619-treated group), the “effect of IBTX co-infusion on NS-1619-induced increase of permeability (Ki)” value was “decreased NS-1619-induced increase of permeability”.

The record behind these values is patent US20050095196A1, “Method for using potassium channel agonists for delivering a medicant to an abnormal brain region and/or a malignant tumor” (priority 2003, published 2005).
